Results published in patent US4950659A, “16,17-acetalsubstituted androstane-17β-carboxylic acid esters prossessing high binding affinity to the glucocorticosteroid receptor” (Aktiebolaget Draco, priority 1985, dated 1990).

Target: T1, glucocorticoid receptor (Rattus norvegicus, UniProt P06536)
T1 construct: The thymus was removed and put into ice-cold saline; from tissue; host or cells: thymus of male Sprague-Dawley rats, 20,000×g supernatant of homogenate
T1 sequence (P06536 1-795): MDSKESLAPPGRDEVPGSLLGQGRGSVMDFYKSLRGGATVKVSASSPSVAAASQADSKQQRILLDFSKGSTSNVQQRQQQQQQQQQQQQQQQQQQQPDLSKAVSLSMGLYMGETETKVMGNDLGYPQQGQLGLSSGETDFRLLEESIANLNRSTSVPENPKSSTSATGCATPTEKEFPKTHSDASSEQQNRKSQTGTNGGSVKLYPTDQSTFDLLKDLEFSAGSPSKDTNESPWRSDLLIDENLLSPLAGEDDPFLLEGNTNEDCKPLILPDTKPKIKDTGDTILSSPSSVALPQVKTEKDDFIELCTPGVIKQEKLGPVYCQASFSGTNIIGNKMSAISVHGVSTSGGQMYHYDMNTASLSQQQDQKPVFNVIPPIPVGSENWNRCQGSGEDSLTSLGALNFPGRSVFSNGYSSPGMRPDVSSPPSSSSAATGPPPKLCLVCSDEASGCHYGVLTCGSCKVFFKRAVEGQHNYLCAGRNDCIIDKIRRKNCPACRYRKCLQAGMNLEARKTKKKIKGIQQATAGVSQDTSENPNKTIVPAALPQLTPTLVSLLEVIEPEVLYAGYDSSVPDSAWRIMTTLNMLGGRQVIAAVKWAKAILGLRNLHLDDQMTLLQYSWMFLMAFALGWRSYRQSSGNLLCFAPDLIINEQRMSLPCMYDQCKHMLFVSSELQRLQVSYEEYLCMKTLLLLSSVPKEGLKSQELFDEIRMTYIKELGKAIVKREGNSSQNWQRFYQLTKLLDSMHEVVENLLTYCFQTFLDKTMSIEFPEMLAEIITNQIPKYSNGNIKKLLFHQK
Assay: Relative binding affinity to the glucocorticoid receptor: competition with 3H-labelled dexamethasone in rat thymus 20,000×g supernatant
Details: curves compared at the 50% specific binding level of [3H]dexamethasone, referenced to budesonide, assigned RBA = 1, about 24 h at 0° C.
Experimental: All steroids according to the present invention are physiologically active compounds. The affinity of the novel androstane-17β-carboxylic acid esters to the glucocorticoid receptor has been used as a model for determination of the anti-inflammatory potency.
Male Sprague-Dawley rats, one to two months of age, were used throughout the investigation. The thymus was removed and put into ice-cold saline. The tissue was homogenized in a Potter Elvehjem homogenizer in 10 ml of a buffer containing 20 mM Tris, pH 7.4, 10% (w/v) glycerol, 1 mM EDTA, 20 mM NaMoO4, 10 mM mercaptoethanol. The homogenate was centrifuged for 15 min at 20,000×g. Portions of the 20,000×g supernatant (230 μl) were incubated for about 24 h at 0° C. with 100 μl phenylmethylsulphonylfluoride (an esterase inhibitor, final conc. 0.5 mM). 20 μl unlabelled competitor and 50 μl ^3 H-labelled dexamethasone (final conc. […]). Bound and free steroid were separated by incubating the mixture with 60 μl 2.5% (w/v) charcoal and 0.25% (w/v) dextran T70 suspension in 20 mM Tris, pH 7.4, 1 mM EDTA, and 20 mM NaMoO4 for 10 min at 0° C. Following a centrifugation at 500×g for 10 min, 230 μl or the supernatant was counted in 10 ml Insta-Gel in a Packard scintillation spectrophotometer. The supernatants were incubated with (a) [^3 H]dexamethasone alone, (b) [^3 H]dexamethasone plus 1000 fold excess of unlabelled dexamethasone and (c) [^3 H]dexamethasone plus 0.03-300 fold "excess" of competitor. The nonspecific binding was determined when 1000 fold excess of unlabelled dexamethasone was added to [^3 H]-labelled dexamethasone.
The radioactivity bound to the receptor in the presence of competitor divided by the radioactivity bound to the receptor in the absence of competitor multiplied by 100 gives the percentage specific binding of labelled dexamethasone. For each concentration of a competitor the percentage specifically bound radioactivity is plotted against the log of concentration of competitor. The curves are compared at the 50% specific binding level and referenced to budesonide, which is assigned a relative binding affinity (RBA) of 1.

`CCC[C@@H]1O[C@@H]2C[C@H]3[C@@H]4C[C@H](F)C5=CC(=O)C=C[C@]5(C)[C@@]4(F)[C@@H](O)C[C@]3(C)[C@]2(C(=O)OC(C)OC(=O)OC(C)C)O1` (single isomer, unassigned) [Example 87] was tested, and the “relative binding affinities (RBA) to the glucocorticoid receptor” value (“relative binding affinities (RBA)” below) was 0.63.

For `CCC[C@@H]1O[C@@H]2C[C@H]3[C@@H]4CCC5=CC(=O)C=C[C@]5(C)[C@H]4[C@@H](O)C[C@]3(C)[C@]2(C(=O)OC(C)OC(=O)OCC)O1` (stereo partly shown) [Example 67], the “relative binding affinities (RBA)” value was 0.04.

For `CCC[C@@H]1O[C@@H]2C[C@H]3[C@@H]4C[C@H](F)C5=CC(=O)C=C[C@]5(C)[C@@]4(F)[C@@H](O)C[C@]3(C)[C@]2(C(=O)OC(C)OC(=O)OCC)O1` (single isomer, unassigned) [Example 84], the “relative binding affinities (RBA)” value was 1.03.

With `CCOC(=O)OC(C)OC(=O)C12OC(C)(C)OC1CC1C3CC(F)C4=CC(=O)C=CC4(C)C3(F)C(O)CC12C` (single isomer, unassigned) [Example 4 epimer B, 1'-Ethoxycarbonyloxyethyl 6α,9α-difluoro-11β-hydroxy-16α,17α-[(1-methylethylidene)bis(oxy)]androsta-1,4-diene-3-one-17β-carboxylate] the “relative binding affinities (RBA)” value was 0.30.

With `CCC[C@@H]1O[C@@H]2C[C@H]3[C@@H]4CCC5=CC(=O)C=C[C@]5(C)[C@@]4(F)[C@@H](O)C[C@]3(C)[C@]2(C(=O)OC(C)OC(=O)OCC)O1` (single isomer, unassigned) [Example 69] the “relative binding affinities (RBA)” value was 0.44.

`CCOC(=O)OC(C)(C)OC(=O)C12OC(C)(C)OC1CC1C3CC(F)C4=CC(=O)C=CC4(C)C3(F)C(O)CC12C` (stereo not shown) [Example 38] was tested, and the “relative binding affinities (RBA)” value was 0.04.

For `CC(=O)OC(C)OC(=O)C12OC(C)(C)OC1CC1C3CC(F)C4=CC(=O)C=CC4(C)C3(F)C(O)CC12C` (single isomer, unassigned) [Example 5 epimer B, 1'-Acetoxyethyl 6α,9α-difluoro-11β-hydroxy-16α,17α-[(1-methylethylidene)bis(oxy)]androsta-1,4-diene-3-one-17β-carboxylate], the “relative binding affinities (RBA)” value was 0.17.

With `CC(C)OC(=O)OC(C)OC(=O)C12OC(C)(C)OC1CC1C3CC(F)C4=CC(=O)C=CC4(C)C3(F)C(O)CC12C` (single isomer, unassigned) [Example 27, 1'-isopropoxycarbonyloxyethyl 6α,9α-difluoro-11β-hydroxy-16α,17α-[(1-methylethylidene)bis(oxy)]androsta-1,4-diene-3-one-17β-carboxylate] the “relative binding affinities (RBA)” value was 0.50.

In the case of `CCC[C@@H]1O[C@@H]2C[C@H]3[C@@H]4CCC5=CC(=O)C=C[C@]5(C)[C@@]4(F)[C@@H](O)C[C@]3(C)[C@]2(C(=O)OC(C)OC(C)=O)O1` (single isomer, unassigned) [Example 55], the “relative binding affinities (RBA)” value is reported as 0.20.

For `CCC[C@@H]1O[C@@H]2C[C@H]3[C@@H]4C[C@H](F)C5=CC(=O)C=C[C@]5(C)[C@@]4(F)[C@@H](O)C[C@]3(C)[C@]2(C(=O)OCOC(=O)OCC)O1` [Example 64], the “relative binding affinities (RBA)” value was 0.05.
